Experimental data: patent US20170273916A1, “METHODS FOR TREATING AND PREVENTING NEURODEGENERATIVE DISEASES” (priority 2016, published 2017)
In brackets after ≈: the same amount, converted by molar mass. Entries after “also recorded” stand apart in the source; their conditions may differ.

Legend:
NGF-induced PC12 cells = test: Viability of NGF-induced PC12 cells treated with extracts and compounds (CCK-8 assay); assay type: cell-based; details: Rattus norvegicus, PC-12, 24 hr incubation, CCK-8, FIGS. 1A-1E, read-out: IC50 (cell viability)
Description: PC12 cells were cultured in RPMI 1640 medium (5% fetal bovine serum, 10% heat-inactivated horse serum, 2 mM glutamine, 50 U/mL penicillin, […] streptomycin), at 37° C., 5% CO2, subculture twice a week.
PC12 cells need to be cultured in medium containing Nerve growth factor (NGF) 2.5S, (100 ng/mL) in advance for NGF-induced neuronal differentiation.
Cell Counting Kit-8(CCK-8) allows sensitive colorimetric assays for the determination of cell viability in cell proliferation and cytotoxicity assays. Dojindo's highly water-soluble tetrazolium salt, WST-8, is reduced by dehydrogenase activities in cells to give a yellow-color formazan dye, which is soluble in the tissue culture media. The amount of the formazan dye, generated by the activities of dehydrogenases in cells, is directly proportional to the number of living cells. The detection sensitivity of CCK-8 is higher than the other tetrazolium salts such as MTT, XTT, MTS or WST-1.
To optimize the exemplary extracts (ANCA, ANCA-D) and compounds (Antrocamol LT1, LT2, LT3) concentration for NGF-induced PC12 neural model, titration experiments were performed to determine the IC50 values of extracts and compounds. 5 x 10^4 NGF-induced PC12 cells were cultured in 96-well dish for 24 hr. Then the cells were cultured in medium with 1% fetal bovine serum, 2% heat-inactivated horse serum, 2 mM glutamine, 50 U/mL penicillin, […] streptomycin RPMI 1640 medium, then various concentrations of extracts [ANCA, ANCA-D (0.064, 0.32, 1.6, 8, 40, 200 μg/mL)] and compounds [Antrocamol LT1, LT2, LT3 (0.032, 0.16, 0.8, 4, 20, 100 μg/mL) were added individually and incubated for 24 hr. After treatment, the CCK-8 solution was added to each well of plates and incubates the plates for 4 hr in the incubator. The concentration of the formazan product was determined spectrophotometrically at an absorbance wavelength 450 nm and cell viability was expressed as a percentage of the corresponding control.

[1] = system: Aβ-induced PC12 cell model; test: Therapeutic effect on Aβ-induced PC12 AD cell model (Aβ pretreatment, then sample; CCK-8 cell viability); assay type: cell-based, rat; details: Aβ 24 h, then sample 24 hr; for therapeutic effect on AD cell model (inhibition of Aβ-induced damage, cell viability): FIGS. 2A-2E, concentration not given
Description: (§1) β-Amyloid 1-40 (Aβ) was dissolved in 0.1% (v/v) trifluoroacetic acid (TFA) in water at 10 mg/ml and stored at −20° C. as a stock solution. Af3 was diluted to 0.5 mg/ml with phosphate-buffered saline solution (PBS, without Ca2+) and aggregate at 25° C. for 48 hr before use. To investigate the therapeutic effect of extracts (ANCA, ANCA-D) and compounds (Antrocamol LT1, LT2, LT3) on Alzheimer disease (AD) cell model in vitro, cultures were pretreated with Aβ for 24 h and then exposed to freshly prepared extracts (ANCA, ANCA-D) and compounds (Antrocamol LT1, LT2, LT3) for 24 hr before cell viability measurements. In contrast, to investigate the prophylactic effect of extracts (ANCA, ANCA-D) and compounds (Antrocamol LT1, LT2, LT3) on AD cell model, cultures were pretreated with extracts (ANCA, ANCA-D) and compounds (Antrocamol LT1, LT2, LT3) for 24 h and then exposure to aggregated Aβ for 24 h before cell viability measurements. The cell viability was estimated by below formulation:
(§2) Cell viability (%)=(Sample-Blank)/(Control-Blank)×100%

[2] = system: Aβ-induced PC12 cell model; test: Prophylactic effect on Aβ-induced PC12 AD cell model (sample pretreatment, then aggregated Aβ; CCK-8 cell viability); assay type: cell-based, rat; details: sample 24 h, then aggregated Aβ 24 h; for prophylactic effect on AD cell model (preventing Aβ-induced neuronal damage, cell viability): FIGS. 3A-3E, concentration not given
Description: as §1, §2

Structure (SMILES) | IC50 (NGF-induced PC12 cells) [µg/mL] | inhibitory effect on Aβ-induced damage (therapeutic) ([1]; 25 μg/mL) | inhibitory effect on Aβ-induced damage (therapeutic) ([1]; 50 μg/mL) | inhibitory effect on Aβ-induced damage (therapeutic) ([1]; 100 μg/mL) | therapeutic effect on AD cell model (inhibition of Aβ-induced damage, cell viability) [1] | prophylactic effect on AD cell model (preventing Aβ-induced neuronal damage, cell viability) [2] | prophylactic effect compared with extracts ([2]; 100 μg/mL, 50 μg/mL, 25 μg/mL)
COC1=C(OC)[C@H](OC(C)=O)[C@H](C/C=C(\C)CC/C=C(\C)CC(O)C=C(C)C)[C@@H](C)C1=O (stereo partly shown) [LT2, 4-acetoxy-5-[9-hydroxy-3,7,11-trimethyldodeca-2,6,10-trienyl]-2,3-dimethoxy-6-methyl-cyclohex-2-enone] | 168 (≈ 376 µM) | weak | significant inhibitory effect | significant inhibitory effect | significantly inhibited Aβ-induced damage and improved the cell viability | significant impact in preventing; also recorded: weak preventing effect | 
COC1=C(OC)[C@H](O)[C@H](C/C=C(\C)CC/C=C(\C)CC(O)C=C(C)C)[C@@H](C)C1=O (stereo partly shown) [LT1, 4-hydroxy-5-[9-hydroxy-3,7,11-trimethyldodeca-2,6,10-trienyl]-2,3-dimethoxy-6-methyl-cyclohex-2-enone] | 178 (≈ 439 µM) | weak | significant inhibitory effect | significant inhibitory effect | significantly inhibited Aβ-induced damage and improved the cell viability | significant impact in preventing | better prophylactic effect than extracts
COC1=C(OC)[C@H](O)[C@H](C/C=C(\C)CC/C=C(\C)C/C=C/C(C)(C)O)[C@@H](C)C1=O [LT3, (4R,5R,6R)-4-hydroxy-5-[(2E,6E,9E)-11-hydroxy-3,7,11-trimethyldodeca-2,6,9-trienyl]-2,3-dimethoxy-6-methylcyclohex-2-enone] | 106 (≈ 259 µM) | weak | significant inhibitory effect | significant inhibitory effect | significantly inhibited Aβ-induced damage and improved the cell viability | significant impact in preventing; also recorded: weak preventing effect | 
